US11311546B2, “Method for enhancing wound healing by administrating adenine” (Energenesis Biomedical Co., Ltd., priority 2017, dated 2022)

Legend:
[1] = system: pressure ulcer wound of C57BL/6 mice; assay: Pressure ulcer healing; format: in vivo; settings: 1 to 4,000 μM adenine in normal saline
Description: The C57BL/6 mice approximately at 8 weeks of age were purchased from the National Laboratory Animal Center (NLAC, R.O.C.). The mice were anesthetized with isoflurane using anesthesia system for rodents (Matrx™ VIP 3000 isoflurane vaporizer, Midmark). Before wounding, the dorsal surface was shaved and sterilely prepped with 70% ethanol for surgery. Dorsal skin was positioned between 2 circular magnets having 12-mm diameter for 12 hours and removed from them for 12 hours for 1 ischemia-reperfusion cycle. Pressure ulcer was created by 2 ischemia-reperfusion cycles. The force generated between the 2 magnets was 0.183N for a 5-mm skin bridge between the 2 magnets.
After 2 ischemia-reperfusion cycles, the compositions containing 1 μM to 4,000 μM adenine in normal saline or only normal saline as Control were individually applied on the pressure ulcer wound of mice once daily for 14 days.
(§1) Wounds of each mice were photographed everyday with standardized exposure and focal lengths using a digital camera (Lumix DMC-GF1, Panasonic), and wound areas were analyzed and calculated according to the analysis as described in Example 1.

ATP = ATP assay in regenerated skin tissue; format: in vivo; settings: db/db mice; 12 days post wounding; ATP colorimetric assay
Description: The process of animal experiment was the same as Example 2, except that after 12 days post wounding, skin tissues of db/db mice were homogenized and centrifuged for 10 mins with 8,000 rpm at 4° C. Supernatant from tissue lysate was filled up in the column and spun down at 1,000×g for 2 minutes. 10 μL of eluate was analyzed using ATP colorimetric assay kit (Biovision).

[2] = system: full-thickness excisional skin wounds of C57BL/6J mice; assay: Excisional skin wound healing and scar formation; format: in vivo
Description: C57BL/6J mice were maintained at 22° C. under a 12-h light/dark cycle. The experiments were performed with 12-weeks old mice. After anesthetized by an intraperitoneal injection of ketamine ([…]) and xylazine (100 mg/kg), 6-mm full-thickness excisional skin wounds was made on the backs of mice using 6-mm skin biopsy punches. Immediately after wounding, 1 μM to 4000 μM of adenine in […] saline or saline alone was applied to the wound bed. The skin wounds were then covered by semipermeable transparent dressing and fixed to the skin. The mice were treated with adenine or vehicle for 14 days and then sacrificed. The scar formation was assessed by Masson's trichrome staining to observe the fibrosis process and the collagen framework of the healed wound (Fixed by 4% paraformaldehyde).

3T3 cells = assay: Fibroblast (3T3) cell proliferation assay; format: cell-based, Human; settings: 72 h; dose-dependent
Description: […] fibro blast cell line 3T3 were cultured in high-glucose Dulbecco's modified Eagle's medium (DMEM) containing 10% fetal bovine serum (FBS), 4 mM L-glutamine, 2 mM sodium pyruvate and 1% penicillin/streptomycin (Invitrogen GibeoBRL, Carlsbad, Calif., USA) at 37° C. under 5% CO2. For cell proliferation assay, 3T3 cells were plated at 1×10^5 per well (6-well plate). 24 h after plating, cells were treated with indicated concentration of adenine for 72 h and the number of viable cells was counted. Cells were detached using trypsin-EDTA solution and stained with trypan blue. The living cells were counted using hemocytometer. […] Data were presented as the mean±SEM of three independent experiments.

AMPK = AMPK activation assay (western blot of regenerated skin tissue); format: in vivo; settings: db/db mice, 12 days post wounding
Description: Effects of adenine on AMPK activation were evaluated based on the phosphorylation of AMPK and Acetyl-CoA carboxylase (ACC) protein upon adenine treatment. The process of animal experiment was the same as Example 2, except that after 12 days post wounding, skin tissues of db/db mice were homogenized and subject to western blot analysis. Equal amount of proteins from each sample was separated by SDS-PAGE and then electroblotted on to PVDF membranes. Membranes were blocked with 3% BSA in PBS for 60 mins and incubated with an anti-phospho-AMPK (Thr172) antibody (1:2000, Cell Signaling), an anti-AMPK antibody (1:2000, Cell Signaling), an anti-ACC antibody (1:1000, Cell Signaling) or an anti-phospho-ACC antibody (1:1000, Cell Signaling) at 4° C. overnight followed by the corresponding secondary antibody for 1 h at room temperature (RT). Immunoreactive bands were detected by enhanced chemiluminescence (ECL; Pierce, Rockford, Ill., USA) and recorded using Kodak film (Rochester, N.Y., USA). The detected signals were scanned and then quantified using ImageJ software.

[3] = system: scald burn wound of C57BL/6 mice; assay: Scald burns healing; format: in vivo; settings: 1 to 4,000 μM adenine in normal saline, once daily for 28 days
Description: The C57BL/6 mice approximately at 8 weeks of age were purchased from the National Laboratory Animal Center (NLAC, R.O.C.). The mice were deeply anesthetized by injecting intraperitoneally normal saline mixed with zoletil 50 and 2% rompun in a ratio of 2:1:1 (2 μl per gram of body weight). Each of the mice was shaved by depilatory cream. The shaved dorsal surface of each mice was sterilized with 70% ethanol and then the mice were placed in a restrainer with a 2×3 cm hole at the top. The dorsal surface of mice was exposed toward the hole of restrainer. The water at 60° C. was applied to the dorsal surface of mice for 40 seconds, followed by water at 4° C. for 45 seconds. The mice of Control group was only applied with water at 4° C. for 45 seconds. After scalding, each of the mice was then individually placed in a cage, and fed with diazepam in the drinking water (50 mg/L) for the early 7 days. The mice were monitored every day for body weight of and wound infections. […]
as §1

[4] = system: diabetic wound of db/db mice; assay: Diabetic wound healing, 0.02% adenine gel on splinted full thickness wound; format: in vivo; settings: 0.02% adenine in a form of gel, once daily for 15 days
Description: The BKS. Cg-Dock7^m+/+Lepr^db/Jnarl (db/db) male mice at 8 weeks of age were purchased from the National Laboratory Animal Center (NLAC, R.O.C.). A total number of 10 mice with healthy and intact skin were used for the test for diabetic wound healing. The average±SEM body weight of the mice was 34.5±1.5 g. All mice had fasting blood glucose levels over 300 mg/dL.
The mice were housed individually in stainless steel cage, and were quarantined and acclimated for at least one week prior to test for diabetic wound healing. The temperature and relative humidity were in the range stipulated in the protocol at 21±2° C. and 55±10%, respectively. A 12-h/12-h light/dark cycle was maintained with light on at 7:00 AM and off at 7:00 PM.
The method for applying the composition containing 0.02% of adenine to the diabetic wound of mice was shown as follows. The mice described in Preparation example 4 were randomly divided into two groups of five animals each and then were anesthetized with isoflurane by use of an anesthesia system for rodents (Matrx™ VIP 3000 isoflurane vaporizer, Midmark). […]
as §1

Nc1ncnc2nc[nH]c12 [Adenine, adenine]
process of healing of pressure ulcer wound ([1]; once daily for 14 days): efficiently enhance the process of healing of pressure ulcer wound
extent of closure versus control mice ([1]; after 14 day of treatment, dose-dependent): significantly greater
ATP level in regenerated skin tissue (ATP): efficiently increase ATP level
scar width compared to vehicle treated wounds ([2]; 14 days post-wounding, topical treatment, histological examination): significantly decreased
extent of closure versus control mice ([2]; after 14 days of treatment, 1 μM to 4000 μM adenine in saline, dose-dependent): significantly greater
3T3 cell proliferation (3T3 cells): significantly inhibited
phosphorylation level of ACC in regenerated skin tissue (AMPK): efficiently enhance phosphorylation level
phosphorylation level of AMPK in regenerated skin tissue (AMPK): efficiently enhance phosphorylation level
inflammatory response [3]: efficiently decrease inflammatory response
process of healing of scald burns wound [3]: enhance the process of healing of scald burns wound
process of diabetic wound healing [4]: efficiently enhance the process of diabetic wound healing
